How the values were obtained:
[1] = test system: E-cadherin protein in SW620inv cells; assay: Quantitative Western blot of E-cadherin protein, SW620inv time course; assay type: cell-based; details: maintained level, 12, 18 and 24 hour time-points
[2] = test system: E-cadherin expression in SW620inv colon cancer cells; assay: Quantitative in-cell Western (ICW), E-cadherin restoration in SW620inv cells; assay type: cell-based; details: 24 hours, 3 biological replicates
Method: SW620inv cells were used for ICW analysis as described (Stoops, S. L., et al. (2011) ACS Chemical Biology 6, 452-465).
SW620 cells (ATCC p92) were grown in RPMI+10% FBS+P/S to sub-confluence. The cells were washed with PBS, trypsinized, and re-suspended in serum-free RPMI at a concentration of one million cells/mL. The cells were then added to the upper chamber of 24 mm transwell (Costar#3428) that had been coated with 400 μL of 2.5 mg/mL matrigel (BD Biosciences). One milliliter of 10% FBS+P/S was added to the lower chamber. The cells were incubated at 37° C. for 72 hours in order to allow the cells to invade. Four biological replicate transwells were prepared for invasion. […] These invasive cells were then analyzed by western blot, matrigel invasion assay, and immunofluorescence for E-cadherin levels with and without TSA treatments. […]
Compounds of the present invention restore E-cadherin protein to the surface of selected aggressive colon and lung cancer cells. […] The kinetics of altered E-cadherin expression in SW620inv cells was determined by quantitative Western blot, using the Odyssey imaging system. […]
Referring to FIG. 2B and FIG. 2C, concentration dependent changes in E-cadherin expression following 24 hours of Compound 13 (259Y) treatment as determined by quantitative in cell Western (ICW) are shown.

[3] = Clearance in vitro, rat; assay type: in vitro ADME
Method: (§1) The potency and efficacy of Compound 13 was evaluated in vivo. For these studies, the pharmacokinetics of Compound 13 were first evaluated in vitro and in vivo (FIG. 14).

[4] = test system: proximal region of the E-cadherin promoter (Cdh1) in SW620inv cells; assay: ChIP assay at proximal E-cadherin promoter, SW620inv cells; assay type: cell-based
[5] = test system: HMEC-1 cells; assay: E-cadherin, VE-cadherin, Vimentin and histone marks in HMEC-1 cells (qPCR, Western blot); assay type: cell-based, human; details: HMEC-1, 10 μM, by 12 and 24 hours after treatment
[6] = Protein binding in vitro, human samples; assay type: in vitro ADME
Method: as §1

[7] = test system: HEp3 cells; assay: E-cadherin mRNA, protein and histone marks in HEp3 cells; assay type: cell-based, Human; details: by 6 hours after treatment, compared with Compound 124 treatment
Method: To determine if Compound 13 restores E-cadherin in HEp3 cells, the effect of Compound 13 treatment on E-cadherin mRNA expression was tested. Compound 13 induced an 8-fold increase in E-cadherin mRNA by 6 hours after treatment in the […] compared with Compound 124 treatment (FIG. 15C). Not only E-cadherin specific mRNA, but also E-cadherin protein, was induced by Compound 13 treatment (FIG. 15D).
Avian embryos were treated with Compound 124 (266Y) or Compound 13 (259Y) 24 hours after intravenous injection of GFP-expressing HEp3 cells. The formation of metastatic colonies was monitored visually by a fluorescent stereoscope at 50× magnification. Representative images are shown, scale bar=500 μm (15A). Colony diameter was quantified at 6 days post injection. The data represent a total of 30 embryos from two independent experiments: 12 treated with Compound 124 (266Y) and 18 treated with Compound 13 (259Y). […] Each data point on the scatterplot represents the geometric mean diameter of 6-10 colonies analyzed per embryo (15B). Relative E-cadherin mRNA expression in HEp3 cells following 6 hours treatment with either Compound 124 (266Y) or Compound 13 (259Y) is shown (15C). Western blot showing E-cadherin protein re-expression in HEp3 cells following treatment with DMSO, Compound 124 (266Y), or Compound 13 (259Y) for 24 hours is shown (15D). […]

[8] = test system: E-cadherin mRNA in SW620inv cells; assay: qPCR of E-cadherin specific mRNA, SW620inv cells; assay type: cell-based; details: 10 μM, 6 hours post-treatment, relative to DMSO
[9] = Clearance in human microsomes; assay type: in vitro ADME
Method: as §1

[10] = IV pharmacokinetics in Sprague-Dawley rats; assay type: in vivo; details: IV dosing
Method: as §1

[11] = SW620inv, ChIP, 10 μM vs DMSO (FIG. 7C)

EC50 [2]: 2.22 µM | clearance [3]: very moderate | protein binding [6]: relatively high | clearance [9]: minimal | clearance [10]: moderate | elimination half-life [10]: long | volume of distribution [10]: moderate
Compound: O=C(NCCCNC(=O)c1cccnc1O)c1cc(-c2ccccc2)on1 [Compound 13, N-(3-(2-hydroxynicotinamido)propyl)-5-phenylisoxazole-3-carboxamide]
E-cadherin protein levels relative to control vehicle treated cells [1]: > 10 × | Pol II association with the E-cadherin proximal promoter ([4]; ChIP (FIG. 8)): 3.7 fold | enriched binding of H3K4me3 at the E-cadherin promoter [4, 11]: 2.1 fold | enriched binding of H3K9Ac at the E-cadherin promoter [4, 11]: 3.4 fold | enriched binding of Pol II at the E-cadherin promoter [4, 11]: 4.6 fold | induced expression of E-cadherin mRNA species [5]: > 5 × | increase in E-cadherin mRNA [7]: 8 fold | increase of E-cadherin specific mRNA [8]: 27 fold

— patent US9783510B2, “Small molecule mediated transcriptional induction of E-cadherin” (Vanderbilt University, priority 2014, dated 2017)
